Reference: ChEMBL document CHEMBL4619745, “Identification of 2-((2,3-dihydrobenzo[b][1,4]dioxin-6-yl)amino)-N-phenylpropanamides as a novel class of potent DprE1 inhibitors” (Bioorg Med Chem Lett, 2020)
In brackets after ≈: the same amount, converted by molar mass.

Key:
[1] = Inhibition of Mycobacterium tuberculosis DprE1
[2] = Lipophilicity, log D of the compound at pH 7.4; type: physicochemical; details: buffer
[3] = system: Mycobacterium tuberculosis; test: Antimycobacterial activity against Mycobacterium tuberculosis H37Rv; type: functional
HepG2 = test: Cytotoxicity against human HepG2 cells assessed as reduction in cell viability; type: cell-based

Row | Structure (SMILES) | IC50 [1] [nM] | pIC50 [1] | logD [2] | MIC [3] [µM] | IC50 (HepG2) [nM]
1 | CC(Nc1ccc2c(c1)OCCO2)C(=O)Nc1ccc(C(F)(F)F)cc1 (centres undefined) | 126 | 6.9 | – | – | –
2 | CC(C)(Nc1ccc2c(c1)OCCO2)C(=O)Nc1ccc(Br)cc1 | 126 | 6.9 | 6.3 | 4 (≈ 1.57 µg/mL) | –
3 | CNC(=O)C(C)Nc1ccc2c(c1)OCCO2 (centres undefined) | 31600 | 4.5 | – | > 125 | –
4 | CC(C)C(Nc1ccc2c(c1)OCCO2)C(=O)Nc1ccc(Br)cc1 (centres undefined) | 39800 | 4.4 | 6.6 | > 125 | –
5 | CC(Nc1cnc2c(c1)OCCO2)C(=O)Nc1ccc(Br)cc1 (centres undefined) | 2000 | 5.7 | 4 | 62 (≈ 23.5 µg/mL) | –
6 | CC(Nc1ccc2c(c1)OCCO2)C(=O)Nc1ccc2cc[nH]c2c1 (centres undefined) | 794 | 6.1 | 4 | 32 (≈ 10.8 µg/mL) | –
7 | COc1cc(NC(C)C(=O)Nc2ccc(Br)cc2)cc(OC)c1 (centres undefined) | 25100 | 4.6 | – | – | –
8 | CC(Nc1ccc2c(c1)OCCO2)C(=O)Nc1ccc(-c2cccnc2)cc1 (centres undefined) | > 100000 | < 4 | 4.2 | – | –
9 | CC(Nc1ccc(Br)cc1)C(=O)Nc1ccc(Br)cc1 (centres undefined) | 3980 | 5.4 | – | – | –
10 | CC(Nc1ccc2c(c1)OCCO2)C(=O)Nc1ccc(Br)nc1 (centres undefined) | 1590 | 5.8 | 4.2 | 32 (≈ 12.1 µg/mL) | –
11 | CC(Nc1ccc2c(c1)OCCO2)C(=O)Nc1ccc(Br)cn1 (centres undefined) | 6310 | 5.2 | 5.4 | 80 (≈ 30.3 µg/mL) | –
12 | CC(Nc1ccc2c(c1)OCC(=O)N2)C(=O)Nc1ccc(Br)cc1 (centres undefined) | > 100000 | < 4 | 3.9 | – | –
13 | CC(Nc1ccc2c(c1)OCCO2)C(=O)Nc1nc2ccccc2[nH]1 (centres undefined) | 3980 | 5.4 | 3.7 | 62 (≈ 21 µg/mL) | –
14 | CCC(Nc1ccc2c(c1)OCCO2)C(=O)Nc1ccc(Br)cc1 (centres undefined) | 3980 | 5.4 | 6 | 62 (≈ 24.3 µg/mL) | –
15 | COc1cccc(NC(C)C(=O)Nc2ccc(Br)cc2)c1 (centres undefined) | 1590 | 5.8 | – | – | –
16 | CC(Nc1ccc2c(c1)OCCO2)C(=O)NC1CCCCC1 (centres undefined) | 39800 | 4.4 | 4.4 | > 125 | –
17 | CC(Oc1ccc2c(c1)OCCO2)C(=O)Nc1ccc(Br)cc1 (centres undefined) | 200 | 6.7 | 6.2 | 12 (≈ 4.54 µg/mL) | –
18 | CC(Nc1ccc2c(c1)NCCO2)C(=O)Nc1ccc(Br)cc1 (centres undefined) | 2510 | 5.6 | 4.8 | > 125 | –
19 | C[C@H](Nc1ccc2c(c1)OCCO2)C(=O)Nc1ccc(Br)cc1 | 1000 | 6 | 5.5 | 13 (≈ 4.9 µg/mL) | –
20 | O=C1C(Cc2ccc3c(c2)OCCO3)CCCN1c1ccc(Br)cc1 (centres undefined) | 63100 | 4.2 | 5.8 | 110 (≈ 44.3 µg/mL) | –
21 | CC(C(=O)Nc1ccc(Br)cc1)N(C)c1ccc2c(c1)OCCO2 (centres undefined) | 63 | 7.2 | 6.7 | 2.5 (≈ 0.978 µg/mL) | –

Row | Structure (SMILES) | IC50 [1] [nM] | pIC50 [1] | logD [2] | MIC [3] [µM] | IC50 (HepG2) [nM]
22 | CC(Nc1ccc2c(c1)OCCO2)C(=O)Nc1ccc2cn[nH]c2c1 (centres undefined) | 3980 | 5.4 | 3 | 31 (≈ 10.5 µg/mL) | –
23 | CC(Nc1ccc2c(c1)OCCO2)C(=O)Nc1ccc(Cl)cc1 (centres undefined) | 398 | 6.4 | 5.2 | 8 (≈ 2.66 µg/mL) | –
24 | CC(Nc1ccc2c(c1)OCO2)C(=O)Nc1ccc(Br)cc1 (centres undefined) | 1000 | 6 | – | – | –
25 | CNC(=O)c1ccc(NC(=O)C(C)Nc2ccc3c(c2)OCCO3)cc1 (centres undefined) | > 100000 | < 4 | 2.4 | – | –
26 | CC(Nc1ccc2c(c1)OCCO2)C(=O)Nc1ccc(Br)cc1 (racemic) | 63 | 7.2 | 5.5 | 7.8 (≈ 2.94 µg/mL) | > 100000
27 | CC(Nc1ccc2c(c1)OCCO2)C(=O)Nc1ccccc1 (centres undefined) | 63100 | 4.2 | 4.3 | > 125 | –
28 | O=C1C(Cc2ccc3c(c2)OCCO3)CCN1c1ccc(Br)cc1 (centres undefined) | 31600 | 4.5 | 6 | > 125 | –
29 | C[C@@H](Nc1ccc2c(c1)OCCO2)C(=O)Nc1ccc(Br)cc1 | 251 | 6.6 | 5.5 | 6.5 (≈ 2.45 µg/mL) | –
30 | Cc1ccc(NC(=O)C(C)Nc2ccc3c(c2)OCCO3)cc1 (centres undefined) | 15800 | 4.8 | 4.8 | 125 (≈ 39 µg/mL) | –
31 | CC(Cc1ccc2c(c1)OCCO2)C(=O)Nc1ccc(Br)cc1 (centres undefined) | 2000 | 5.7 | – | 110 (≈ 41.4 µg/mL) | –
32 | CC(Nc1ccc2c(c1)NCCC2)C(=O)Nc1ccc(Br)cc1 (centres undefined) | 1260 | 5.9 | 6 | 125 (≈ 46.8 µg/mL) | –
33 | CC(Nc1ccc2c(c1)OCCO2)C(=O)Nc1ccc(C#N)cc1 (centres undefined) | 2000 | 5.7 | 4.2 | 31 (≈ 10 µg/mL) | –
34 | CC(Nc1ccc2c(c1)OCCO2)C(=O)N(C)C (centres undefined) | 39800 | 4.4 | 2.2 | > 125 | –
35 | COc1ccc(NC(C)C(=O)Nc2ccc(Br)cc2)cc1OC (centres undefined) | 2000 | 5.7 | 5.2 | 40 (≈ 15.2 µg/mL) | –
36 | NNC(=O)c1ccncc1 [ISONIAZID] | – | – | – | 1.8 (≈ 0.247 µg/mL) | –
37 | CC(Nc1ccc(Br)cc1)C(=O)Nc1ccc2c(c1)OCCO2 (centres undefined) | 63100 | 4.2 | 5.3 | 125 (≈ 47.2 µg/mL) | –
38 | O=C(CNc1ccc2c(c1)OCCO2)Nc1ccc(Br)cc1 | 200 | 6.7 | 5.1 | 16 (≈ 5.81 µg/mL) | –
39 | CC(Nc1ccc2c(c1)OCCCO2)C(=O)Nc1ccc(Br)cc1 (centres undefined) | 158 | 6.8 | 5.7 | 4 (≈ 1.57 µg/mL) | –
40 | CC(Nc1ccc2c(c1)CCCC2)C(=O)Nc1ccc(Br)cc1 (centres undefined) | 631 | 6.2 | 7.7 | 16 (≈ 5.97 µg/mL) | –
41 | CC(Nc1ccc2c(c1)NC(=O)CO2)C(=O)Nc1ccc(Br)cc1 (centres undefined) | > 100000 | < 4 | 4.2 | – | –
42 | CC(Nc1ccc2c(c1)OCCO2)C(=O)Nc1ccc(-c2cnco2)cc1 (centres undefined) | > 100000 | < 4 | 3.7 | – | –
